This is an account of results in ChEMBL document CHEMBL1201862, “PubChem BioAssay data set” (2004).

The source made the active and inactive calls.

One test deals with H9c2. Nature of the test: cells. Conditions: Rattus norvegicus, H9c2, Myocardium. Format: functional, cell-based.
In test [1] the target is T1, Replicative DNA helicase DnaB (Mycobacterium tuberculosis, UniProt P9WMR3).
T1 sequence (P9WMR3 whole entry): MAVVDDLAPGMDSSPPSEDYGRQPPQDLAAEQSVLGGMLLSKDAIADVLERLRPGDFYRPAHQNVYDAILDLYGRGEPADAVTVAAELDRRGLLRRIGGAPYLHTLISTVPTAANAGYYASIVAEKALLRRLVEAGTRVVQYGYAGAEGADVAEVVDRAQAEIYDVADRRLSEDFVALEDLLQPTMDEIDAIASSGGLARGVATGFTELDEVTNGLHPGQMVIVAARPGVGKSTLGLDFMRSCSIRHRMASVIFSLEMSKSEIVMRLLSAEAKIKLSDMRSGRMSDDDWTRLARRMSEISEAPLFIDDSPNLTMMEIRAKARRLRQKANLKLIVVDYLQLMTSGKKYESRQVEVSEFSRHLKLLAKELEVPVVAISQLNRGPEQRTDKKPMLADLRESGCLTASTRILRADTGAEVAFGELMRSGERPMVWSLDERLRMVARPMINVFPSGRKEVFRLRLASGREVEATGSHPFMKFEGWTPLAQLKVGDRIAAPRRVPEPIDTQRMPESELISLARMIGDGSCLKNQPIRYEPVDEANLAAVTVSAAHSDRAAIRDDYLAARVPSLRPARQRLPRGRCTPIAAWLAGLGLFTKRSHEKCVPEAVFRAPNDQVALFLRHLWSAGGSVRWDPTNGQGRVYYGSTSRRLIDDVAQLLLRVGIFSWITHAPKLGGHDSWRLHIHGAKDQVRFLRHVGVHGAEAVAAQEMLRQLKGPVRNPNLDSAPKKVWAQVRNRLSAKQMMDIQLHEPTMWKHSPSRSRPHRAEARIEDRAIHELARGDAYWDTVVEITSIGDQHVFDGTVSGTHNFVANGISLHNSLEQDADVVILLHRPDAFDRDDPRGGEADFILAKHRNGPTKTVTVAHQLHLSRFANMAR
Nature of the test: DnaB intein splicing inhibitors, dose response, biochemical, cell-free fluorescence (AID 449749). Format: functional.

The next test addresses T2, Protein RecA (Mycobacterium tuberculosis, UniProt P9WHJ3).
T2 sequence (P9WHJ3 whole entry): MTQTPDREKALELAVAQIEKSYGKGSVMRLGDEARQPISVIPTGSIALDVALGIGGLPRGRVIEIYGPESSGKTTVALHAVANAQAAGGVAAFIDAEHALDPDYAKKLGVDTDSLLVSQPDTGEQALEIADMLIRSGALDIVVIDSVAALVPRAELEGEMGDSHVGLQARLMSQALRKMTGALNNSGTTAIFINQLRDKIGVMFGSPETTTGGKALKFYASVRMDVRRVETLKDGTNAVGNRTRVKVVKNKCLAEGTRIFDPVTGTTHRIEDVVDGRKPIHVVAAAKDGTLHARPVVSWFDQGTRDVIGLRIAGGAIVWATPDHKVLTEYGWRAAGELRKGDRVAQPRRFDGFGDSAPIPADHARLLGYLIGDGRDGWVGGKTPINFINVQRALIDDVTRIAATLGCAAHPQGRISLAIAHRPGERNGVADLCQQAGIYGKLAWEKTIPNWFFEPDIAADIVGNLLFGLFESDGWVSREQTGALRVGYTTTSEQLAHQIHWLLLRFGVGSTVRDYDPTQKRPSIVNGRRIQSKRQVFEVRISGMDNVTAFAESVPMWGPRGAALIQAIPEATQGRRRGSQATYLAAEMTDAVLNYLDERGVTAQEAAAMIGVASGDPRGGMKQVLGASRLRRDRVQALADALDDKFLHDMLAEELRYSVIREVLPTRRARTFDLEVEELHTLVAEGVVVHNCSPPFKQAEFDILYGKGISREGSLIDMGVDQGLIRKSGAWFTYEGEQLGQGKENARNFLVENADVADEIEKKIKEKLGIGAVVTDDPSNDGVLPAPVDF
Briefly: Fluorescence Cell-Free Homogeneous Dose Retest to Identify Inhibitors of RecA-Intein Splicing Activity. [Related pubchem assays (depositor defined):AID2097, AID2223, AID489010, AID492950]. The test is classed as functional.

The target in test [2] is T3, RNA-binding protein pos-1 (Caenorhabditis elegans, UniProt G5EF15).
T3 sequence (G5EF15 whole entry): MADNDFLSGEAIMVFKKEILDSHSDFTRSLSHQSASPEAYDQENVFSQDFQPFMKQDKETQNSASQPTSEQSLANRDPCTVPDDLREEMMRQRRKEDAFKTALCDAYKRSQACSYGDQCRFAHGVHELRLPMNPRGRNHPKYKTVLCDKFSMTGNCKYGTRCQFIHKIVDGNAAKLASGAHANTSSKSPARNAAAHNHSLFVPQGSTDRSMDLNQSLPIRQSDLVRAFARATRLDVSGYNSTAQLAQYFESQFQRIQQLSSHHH
Briefly: disruptors of C. elegans POS-1 RNA interaction – biochemical, fluorescence polarization, dose response (AID 1964).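 Note: purified POS-1 fused to maltose binding protein made in E. coli; potency of compounds blocking POS-1 binding to fluorescent RNA.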

Test [3] has as its target T4, Zinc finger protein mex-5 (Caenorhabditis elegans, UniProt Q9XUB2).
T4 sequence (Q9XUB2 whole entry): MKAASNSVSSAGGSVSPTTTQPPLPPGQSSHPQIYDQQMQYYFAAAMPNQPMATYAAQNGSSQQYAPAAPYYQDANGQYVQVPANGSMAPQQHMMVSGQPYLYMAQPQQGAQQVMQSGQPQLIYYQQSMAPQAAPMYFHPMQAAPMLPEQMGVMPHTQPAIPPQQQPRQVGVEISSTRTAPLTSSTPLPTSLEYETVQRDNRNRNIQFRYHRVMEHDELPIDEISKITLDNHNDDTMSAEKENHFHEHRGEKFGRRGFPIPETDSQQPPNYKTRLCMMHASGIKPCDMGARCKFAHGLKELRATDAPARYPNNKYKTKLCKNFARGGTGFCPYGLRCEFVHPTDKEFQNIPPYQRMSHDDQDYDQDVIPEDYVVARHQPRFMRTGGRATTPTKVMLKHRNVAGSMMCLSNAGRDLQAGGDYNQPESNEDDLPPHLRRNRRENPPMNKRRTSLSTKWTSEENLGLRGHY
Nature of the test: potency of MEX-5 RNA-binding blockers – biochemical, C. elegans, fluorescence polarization, dose response (AID 1960). On the technique in general: Fluorescence polarisation rises when a labelled molecule tumbles more slowly, as on binding a larger partner.

For the next test, the system named is H4. Briefly: Luminescence Cell-Based Dose Response HTS to Identify Activators of 5'UTR Stem-Loop Driven Prion Protein mRNA Translation in H4 Neuroglioblastoma Cells. [Related pubchem assays: 1829 (Project Summary), 1814 (Primary HTS)]. Format: functional. Conditions: Homo sapiens.
Test [4] in a line: Luminescence Cell-Based Dose Response HTS to Identify Activators of Luciferase Translation or Activity in H4 […] Cells. [Related pubchem assays: 1829 (Project Summary), 1814 (Primary HTS)]. The test is classed as functional.
The target of the next test is Cytochrome P450 2C9 (Homo sapiens, UniProt P11712).
The target of the next test is Cytochrome P450 2C19 (Homo sapiens, UniProt P33261). Nature of the test: Cytochrome panel assay with activity outcomes. Panel member name: p450-cyp2c19 Compounds with AC50 equal or less than 10 uM are considered active. The settings on record: read-out: AC50. The test is classed as functional.
The target in test [5] is T5, Corticotropin-releasing factor receptor 2/Corticotropin-releasing factor-binding protein (Homo sapiens, UniProt P24387+Q13324).
T5 sequence (Q13324 whole entry): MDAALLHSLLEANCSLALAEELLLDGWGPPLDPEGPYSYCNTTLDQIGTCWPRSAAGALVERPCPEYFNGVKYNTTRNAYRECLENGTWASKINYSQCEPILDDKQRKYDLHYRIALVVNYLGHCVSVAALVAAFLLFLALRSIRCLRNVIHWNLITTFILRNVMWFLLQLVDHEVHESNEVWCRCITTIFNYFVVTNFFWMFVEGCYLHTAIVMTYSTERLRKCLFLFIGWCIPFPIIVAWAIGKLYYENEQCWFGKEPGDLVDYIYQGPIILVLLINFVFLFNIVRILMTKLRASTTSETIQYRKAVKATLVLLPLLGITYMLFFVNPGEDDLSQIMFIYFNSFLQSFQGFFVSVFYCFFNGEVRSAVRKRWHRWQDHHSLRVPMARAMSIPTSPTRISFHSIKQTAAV
T5 sequence (P24387 whole entry): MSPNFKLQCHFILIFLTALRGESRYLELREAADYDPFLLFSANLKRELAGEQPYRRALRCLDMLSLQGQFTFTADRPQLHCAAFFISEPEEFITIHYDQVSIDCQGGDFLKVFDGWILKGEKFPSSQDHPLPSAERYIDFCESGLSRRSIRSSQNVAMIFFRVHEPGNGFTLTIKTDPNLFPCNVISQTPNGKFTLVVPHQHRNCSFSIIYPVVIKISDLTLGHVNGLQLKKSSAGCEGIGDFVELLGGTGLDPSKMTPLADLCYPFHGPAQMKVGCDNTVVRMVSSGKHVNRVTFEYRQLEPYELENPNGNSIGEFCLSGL
Nature of the test: activators of CRF receptor 2 with binding protein – uHTS hits, confirmation (AID 602473). The settings on record: read-out: EC50_Mean. The test is classed as functional.
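Throughout, for IC50: confirmatory concentration-response retest of ultra-high-throughput screening hits for modulation of myocardial damage; cell death induced by hydrogen peroxide oxidative stress; compound pretreatment for 60 min then peroxide exposure for 2 h; potency is for protecting the cells against peroxide damage rather than for killing them.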

Cytochrome P450 2C19, sequence (P33261 whole entry): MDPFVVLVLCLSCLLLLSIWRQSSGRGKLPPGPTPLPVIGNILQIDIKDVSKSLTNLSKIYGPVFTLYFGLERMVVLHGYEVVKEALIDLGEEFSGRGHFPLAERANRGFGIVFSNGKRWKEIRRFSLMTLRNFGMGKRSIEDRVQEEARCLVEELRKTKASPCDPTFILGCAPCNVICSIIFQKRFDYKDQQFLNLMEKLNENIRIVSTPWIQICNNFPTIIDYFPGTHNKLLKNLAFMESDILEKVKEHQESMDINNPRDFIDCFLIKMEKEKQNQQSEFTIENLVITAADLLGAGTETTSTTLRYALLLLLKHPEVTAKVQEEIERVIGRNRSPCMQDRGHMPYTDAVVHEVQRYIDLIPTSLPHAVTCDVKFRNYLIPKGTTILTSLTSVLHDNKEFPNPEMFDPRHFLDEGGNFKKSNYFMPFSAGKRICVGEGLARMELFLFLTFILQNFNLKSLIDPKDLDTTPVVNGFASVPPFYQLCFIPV
Cytochrome P450 2C9, sequence (P11712 whole entry): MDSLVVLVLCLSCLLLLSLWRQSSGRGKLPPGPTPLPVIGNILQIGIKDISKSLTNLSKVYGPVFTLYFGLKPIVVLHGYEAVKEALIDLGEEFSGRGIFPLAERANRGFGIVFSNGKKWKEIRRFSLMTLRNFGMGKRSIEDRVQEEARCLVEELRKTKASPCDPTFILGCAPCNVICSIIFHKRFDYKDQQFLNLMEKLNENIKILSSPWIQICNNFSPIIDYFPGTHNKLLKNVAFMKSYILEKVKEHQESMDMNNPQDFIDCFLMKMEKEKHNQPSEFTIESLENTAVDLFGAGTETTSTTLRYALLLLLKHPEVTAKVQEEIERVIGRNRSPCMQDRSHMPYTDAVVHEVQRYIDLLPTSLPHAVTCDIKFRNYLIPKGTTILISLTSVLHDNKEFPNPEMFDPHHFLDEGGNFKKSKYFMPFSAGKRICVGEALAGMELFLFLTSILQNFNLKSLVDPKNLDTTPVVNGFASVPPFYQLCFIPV

On to `O=C(CCC(=O)N1CCN(C2CCCCC2)CC1)Nc1nnc(C(F)(F)F)s1`, for which, in the test on H9c2, the IC50 is > 79 µM (inactive).

As to `CCOc1ccc(NC(=O)CN(C)C(=O)Cc2nnc(O)c3ccccc23)cc1OCC`, the IC50 in the test on H9c2 was > 79 µM (inactive).

Consider `CCOC1(OCC)C(c2ccc(Cl)cc2)C(C#N)(C#N)C1(OCC)OCC` (stereo unspecified), for which the AC50 in test [1] is 148 µM (active). Also, on Protein RecA, the EC50 is > 380 µM (inconclusive).

Turning to `CCOC(=O)N1CCC(c2cc(=O)n(-c3ccccc3)[nH]2)CC1`, in [1], the AC50 is 3.66 µM (active). Moreover, the EC50 at Protein RecA is 2.51 µM (active).

On to `COc1cccc2cc(-c3cc(=O)oc4ccc(OCC(C)=O)cc34)oc12`, for which, in the test on H9c2, the IC50 is > 79 µM (inactive).

In the case of `C/C(=N\NC(=O)c1nnn(-c2nonc2N)c1CSc1ccc(C)cc1)c1cccnc1`, in the test on H9c2, the IC50 was > 79 µM (inactive).

For `O=C(NCc1ccc2c(c1)OCO2)c1nnc(O)c2ccccc12`, the IC50 in the test with H9c2 is > 79 µM (inactive).

For `CCOC(=O)[C@]1(C#N)[C@@H]2C=CC(C(C)=O)=CN2[C@@H](C(N)=O)[C@@H]1c1ccsc1`, the EC50 in [2] is 2.5 µM (active); in test [3] it was 12.3 µM (active).

For the molecule `NS(=O)(=O)c1ccc(N/C=C2/C(=O)N(c3nccs3)C(=O)c3ccccc32)cc1`, in the test on H9c2, the IC50 was > 79 µM (inactive).

On to `CCOC(=O)/C(C#N)=C1/SC(C)C(=O)N1c1ccc(Br)cc1` (stereo unspecified), for which the AC50 in [1] is 21 µM (active). For the same molecule, the EC50 on Protein RecA was 11.1 µM (active).

Take `CCCCn1c(N)c(Br)c(=O)[nH]c1=O`: the IC50 with H9c2 is > 79 µM (inactive).

For `Cc1n[nH]c(N=Nc2ccc(O)cc2)n1`, the EC50 in test [2] is > 300 µM (not active); in test [3], 4.83 µM (active).

Turning to `Cc1ccc(-c2nnc(O)c3ccccc23)cc1S(=O)(=O)Nc1ccccc1`, the IC50 with H9c2 is 21.3 µM (active).

Take `CCOC(=O)C1CCN(c2cc3c(cc2NC(=O)c2ccc(F)cc2)n(C)c(=O)n3C)CC1`: the IC50 in the test with H9c2 was 16.7 µM (active).

Take `Cc1ccc(C(=O)C2C(c3ccc(-c4ccccc4[N+](=O)[O-])o3)NC(=O)NC2(O)C(F)(F)F)cc1` (stereo unspecified): in test [1], the AC50 is 5.13 µM (active). Also, the EC50 on Protein RecA was 11.6 µM (active).

Take `Cc1ccc(N(CC(=O)Nc2ccc(-c3nc4ccc(C)cc4s3)cc2)S(C)(=O)=O)cc1`: the EC50 was > 120 µM (not active) in the test with H4 and 1.19 µM (active) in test [4].

`CCCCc1ccc(/C=C2\C(=O)ON=C2c2ccccc2)s1`: the results for the EC50 in test [2] and in [3] were 68 µM (active) and 87.7 µM (active), respectively.

As to `CCOC(=O)Cc1nc2ccccc2n(CC#N)c1=O`, the EC50 in test [2] and in test [3] was > 300 µM (not active) each time.

Take `Cc1n[nH]c2c1C(c1c(C)nn(-c3ccccc3)c1C)C(C#N)=C(N)O2` (stereo unspecified): the AC50 in [1] was 18.6 µM (active). Also, the EC50 at Protein RecA was 12.5 µM (active).

Turning to `CCO/C(C)=N/n1c2nc3ccccc3nc2c2c(=O)n(C3CCCC3)c(C)nc21`, the EC50 in test [2] and in [3] was > 300 µM (not active) in each case.

Regarding `Fc1ccc2c(c1)C1C=CCC1C(c1cc3c(cc1Br)OCO3)N2` (stereo unspecified), the AC50 was 1.78 µM (inconclusive) at Cytochrome P450 2C9 and 316 nM (inconclusive) at Cytochrome P450 2C19. The EC50 in [2] and in test [3] was > 300 µM (not active) throughout.

As to `CC(C)(C)c1cnnn1-c1ccc(C(=O)CCl)cc1`, the AC50 in [1] is 4.17 µM (active). The EC50 on Protein RecA was 2.89 µM (active).

Consider `Nc1n[nH]c(Sc2ccc([N+](=O)[O-])cc2[N+](=O)[O-])n1`, for which the EC50 in test [2] was 85.7 µM (active); in [3], 30.1 µM (active).

Turning to `CN1CC=C2C(C#N)=C(N)C(C#N)(C#N)C(c3ccncc3)C2C1` (stereo unspecified), the EC50 in [2] is 52.9 µM (inconclusive); in test [3], 7.73 µM (active).

As to `COc1ccc(OC)c(/C=c2\sc3nc(-c4cccs4)nn3c2=O)c1`, the EC50 in [5] was 6.32 µM (active); in test [2], > 300 µM (not active); in [3] it was > 300 µM (inconclusive).

Take `Cc1nc(N2CCN(Cc3ccccc3)CC2)c(C#N)c2c1COC(C)(C)C2`: the EC50 was 94.5 µM (active) in test [2] and 108 µM (active) in test [3].

What is called IC50 is the concentration at which inhibition is half-maximal. As usually defined, the AC50 is the midpoint of the concentration-response curve, whichever way the signal moves.
